Measurements reported in patent publication US6384055B1, “Utilization of derivatives of tetrahydropyridines (or 4-hydroxypiperidines)-butylazols in the preparation of a medicament for the treatment of pain” (Laboratorios Del Dr. Esteves, S.A., priority 1998, dated 2002).

Assays:
[1] = tested on: Swiss albino mice; experiment: assay of contortions induced by phenylbenzoquinone; assay type: in vivo; conditions: for ED50: Mus musculus
[2] = tested on: Swiss albino mice; experiment: hot-plate assay; assay type: in vivo; conditions: Mus musculus, 0.5 h, sc, hot-plate 55° C., 30 minutes after administration, read-out: ED-50 hot-plate assay (55° C.)
Description: The product under study was administered s.c. or i.p. and 30 minutes later the analgesic effect was registered. For this the animals were placed on a metallic surface kept at 50° C. or 55° C. and the time registered (latency) until the licked their hind legs and a jump. The analgesic activity was calculated at each dose, comparing the potency of the treated group with the control group. Using the results obtained the ED-50 was calculated.

[3] = mice, oral route, dose inhibiting by 50% the contortions induced by phenylbenzoquinone i.p. 60 minutes after product
[4] = mice, s.c. route, dose inhibiting by 50% the contortions induced by phenylbenzoquinone i.p. 30 minutes after product

SMILES: CC(=O)Oc1ccccc1C(=O)O [Aspirin, aspirin]
- ED50 ([1]; 0.5 h, mice, s.c. route, dose inhibiting by 50% the contortions induced by phenylbenzoquinone i.p. 30 minutes after product, read-out: ED-50 S.C. route): 80 mg/kg
- ED50 ([1]; 1 h, mice, oral route, dose inhibiting by 50% the contortions induced by phenylbenzoquinone i.p. 60 minutes after product, read-out: ED-50 Oral route): 100 mg/kg

SMILES: Cc1c(N(C)CS(=O)(=O)[O-])c(=O)n(-c2ccccc2)n1C.[Na+] [Dipirone, dipirone]
- ED-50 Oral route [1, 3]: 223 mg/kg
- ED-50 S.C. route [1, 4]: 24 mg/kg

SMILES: OC1(c2ccc(Cl)cc2)CCN(CCCCn2cc(Cl)cn2)CC1 [Example 5]
- ED-50 Oral route [1, 3]: 20 mg/kg
- ED-50 S.C. route [1, 4]: 28 mg/kg

SMILES: CN1CC[C@]23c4c5ccc(O)c4O[C@H]2[C@@H](O)C=C[C@H]3[C@H]1C5 [Morfine, morphine]
- ED50 ([1]; 0.5 h, read-out: ED-50 S.C. route): 1 mg/kg
- ED50 ([1]; 1 h, read-out: ED-50 Oral route): 4 mg/kg
- ED50 [2]: 2 mg/kg
